GI50 and TGI data for ten molecules are collected here from PubChem BioAssay (NCI).

Values joined by “and” are separate entries in the source; they are usually repeats but may differ in a detail not shown here. Equal values may be shown once.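 48-hour exposure; five concentrations; linearly interpolated endpoints. GI50 = concentration required for 50% inhibition of growth. TGI: total growth inhibition.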

What all share (test): growth of human tumour cells (NCI), 48 h
For assay [1], the system named is EKVX NSCLC.
The subject of assay [2] is SF-539 CNS.
Assay [3] deals with RXF 393 renal.
Assay [4] concerns SF-295 CNS.
Assay [5] concerns NCI-H23 lung.
Assay [6] concerns HT29 colon.
Assay [7] concerns HOP-62 NSCLC.
Assay [8] concerns TK-10 renal.
Assay [9] deals with BT-549 breast.
Assay [10] relates to SF-268 CNS.

Consider `COC(=O)[C@@H](C)C[C@H](Cc1ccccc1)NC(=O)c1cccc([C@@H](C[C@H](C(C)C)N(C)C(=O)[C@@H](NC(=O)[C@H]2CCCCN2C)C(C)C)OC(C)=O)n1`, for which the GI50 in [1] was 0.00497 µM; in assay [2] it was 0.00275 µM; in assay [3], under 0.00167 µM; in assay [4] it was under 0.00167 µM; in [5], 0.0034 µM; in assay [6], under 0.00167 µM. The GI50 in assay [7] was 0.00367 µM; in assay [9], 0.0025 µM; in assay [10], 0.0164 µM. Further, the TGI in assay [1] is over 16.7 µM; in assay [2] it was 0.00795 µM; in assay [3], over 16.7 µM; in assay [4], 0.0142 µM; in [5], over 16.7 µM; in assay [6] it was over 16.7 µM. Further, the TGI in assay [7] is over 16.7 µM; in [8], over 16.7 µM; in assay [9] it was 0.101 µM; in assay [10], over 16.7 µM.

For the molecule `COc1cc2c(c(OC)c1OC)-c1c(c3ccc([N+](=O)[O-])cc3c(=O)n1CCCN=[N+]=[N-])C2=O`, the GI50 in [1] is over 100 µM; in assay [2] it was 13.5 µM; in assay [3] it was 4.81 µM; in assay [4] it was 18.5 µM; in [5], 15.2 µM; in assay [6], 94 µM. The GI50 in assay [7] is 15.4 µM; in assay [8], 13.1 µM; in assay [9], 47.5 µM; in assay [10], 14.4 µM. The TGI in [1] was over 100 µM; in assay [2] it was 43.1 µM; in assay [3] it was 47.3 µM; in assay [4], over 100 µM; in assay [5], 43.6 µM; in assay [6] it was over 100 µM. Moreover, the TGI in [7] was 38.1 µM; in [8] it was 33.1 µM; in assay [9] it was over 100 µM; in [10], 80.7 µM.

For `C#Cc1cccc(NC(=O)Nc2cccc(NC(=O)CCl)c2)c1`, the GI50 is over 82.5 µM in assay [1]; 14 µM in assay [2]; 13.4 µM in assay [3]; over 82.5 µM in assay [4]; 14 µM in assay [5]; 17.8 µM in [6]. Moreover, the GI50 is 63.6 µM in [7], 38 µM in assay [8], 16.3 µM in assay [9] and 25.7 µM in assay [10]. Further, the TGI in assay [1] is over 82.5 µM; in assay [2] it was 27.8 µM; in assay [3], 63.6 µM; in [4], over 82.5 µM; in assay [5] it was 31.2 µM; in assay [6], 53.5 µM. The TGI in assay [7], in assay [8], in [9] and in assay [10] was over 82.5 µM throughout.

Consider `CN(C)c1ccc(/C=C/C(=O)c2ccc(Nc3nc(Nc4ccc(F)cc4)nc(Nc4ccc(Cl)cc4)n3)cc2)cc1`, for which the GI50 is 8.21 µM in assay [1]; 9.58 µM in assay [2]; 1.92 µM in assay [3]; 4.78 µM in assay [4]; 5.95 µM in assay [5]; 5.18 µM in [6]. Further, the GI50 in assay [7] is 9.42 µM; in assay [8], 11.3 µM; in assay [9], 7.39 µM; in [10], 6.75 µM. Also, the TGI in assay [1] is over 100 µM; in [2], 27.2 µM; in assay [3], 6.1 µM; in [4], 31.9 µM; in assay [5] it was 39.5 µM; in assay [6], 38.9 µM. Besides, the TGI in assay [7] was 28.3 µM; in [8] it was 81.3 µM; in [9], 55.7 µM; in assay [10], 63.6 µM.

For `CCCCc1ccc(C(N)=O)nc1`, the GI50 was 48.9 µM in [1]; over 100 µM in assay [2]; over 100 µM in [3]; over 100 µM in assay [4]; over 100 µM in assay [5]; over 100 µM in [6]. Moreover, the GI50 in assay [7], in [8], in assay [9] and in [10] was over 100 µM throughout. Also, the TGI in assay [1], in [2], in assay [3], in assay [4], in assay [5] and in assay [6] was over 100 µM each time. The TGI in assay [7], in assay [8], in assay [9] and in [10] was over 100 µM in each case.

In the case of `CC(CCC/C=C/CCCN(C)C(=N)N)CC(C)C1OC(=O)C(C)C(O)/C=C/C(C)C(O)C(C)C(O)C(C)C(O)CCCC(O)CC2(O)OC(CC(OC(=O)CC(=O)O)CC(O)CC(O)C(C)C(O)/C=C/C=C/C1C)CC(O)C2O` (stereo not drawn), the GI50 in assay [1] was 3.41 µM and 6.84 µg/mL; in assay [2], 1.73 µM and 2.67 µg/mL; in assay [3], 1.98 µM and 1.89 µg/mL; in assay [4], 4.16 µM and 11.7 µg/mL; in assay [5], 5.99 µM and 13.7 µg/mL; in assay [6], 1.76 µM and 3 µg/mL. In addition, the GI50 in [7] was 4.29 µM and 10.5 µg/mL; in [8], 1.98 µM and 10.3 µg/mL; in assay [9], 2.19 µM and 3.16 µg/mL; in assay [10], 2.76 µM and 6.7 µg/mL. The TGI is 12.6 µM and 16.8 µg/mL in assay [1]; 3.64 µM and 12.5 µg/mL in [2]; 3.71 µM and 4.59 µg/mL in [3]; 17 µM and 22.5 µg/mL in assay [4]; 20.8 µM and 29.4 µg/mL in [5]; 3.41 µM and 11.7 µg/mL in [6]. The TGI in assay [7] is 17.1 µM and 21.6 µg/mL; in [8], 4.17 µM and 21.4 µg/mL; in assay [9], 4.03 µM and 12 µg/mL; in assay [10] it was 7.24 µM and 16.5 µg/mL.

In the case of `COc1ccc(/C=C2\CC(C)CC3C2=NN(C(C)=O)C3c2ccc(OC)c(OC)c2)cc1OC` (stereo not drawn), the GI50 in assay [1] was 19.2 µM; in assay [2], 20.2 µM; in assay [3] it was 17.9 µM; in assay [4], 19.9 µM; in assay [5], 14.9 µM; in [6], 22.4 µM. The GI50 is 17.1 µM in assay [7], 65 µM in assay [8], 19 µM in assay [9] and 14.6 µM in [10]. Further, the TGI is 70.1 µM in [1]; 37.8 µM in assay [2]; 39 µM in [3]; 50.2 µM in assay [4]; 29.3 µM in [5]; over 100 µM in [6]. Besides, the TGI in assay [7] is 37.2 µM; in assay [8], over 100 µM; in assay [9], 37.9 µM; in assay [10] it was 31.8 µM.

`Oc1c(Br)cc(Br)c2cccnc12`: the GI50 in assay [1] was 3.45 µM; in [2], 3.17 µM; in [3] it was 4.13 µM; in assay [4], 2.26 µM; in assay [5], 3.56 µM; in [6], 6.55 µM. Moreover, the GI50 in assay [7] was 3.57 µM; in [8] it was 14.2 µM; in [9], 4 µM; in [10] it was 3.36 µM. The TGI in [1] is 19.1 µM; in assay [2], 7.63 µM; in [3], 23.3 µM; in assay [4], 6.53 µM; in assay [5], 23.6 µM; in assay [6], 26.1 µM. Further, the TGI in [7] is 30.8 µM; in assay [8] it was over 100 µM; in assay [9], over 100 µM; in assay [10] it was over 100 µM.

Regarding `COc1ccc(C2CC(c3ccc(OC)c(OC)c3)=NN2C(=O)c2cc(OC)c(OC)c(OC)c2)cc1` (stereo not drawn), the GI50 is 5.25 µM in assay [1]; 1.36 µM in assay [2]; 0.344 µM in [3]; 0.426 µM in assay [4]; 3.46 µM in assay [5]; 3.07 µM in assay [6]. For the same molecule, the GI50 in assay [7] is 1.78 µM; in assay [8], 5.26 µM; in assay [9], 3.96 µM; in assay [10], 5.06 µM. Further, the TGI is over 100 µM in assay [1]; over 21.7 µM in assay [2]; 3.05 µM in [3]; over 100 µM in assay [5]; over 100 µM in [6]; over 100 µM in assay [7]. For the same molecule, the TGI in assay [8] is over 100 µM; in assay [9] it was over 46.7 µM; in assay [10], over 100 µM.

For `O=C(/C=C/CN1CCCCC1)Nc1cc2c(Nc3ccc(F)c(Cl)c3F)ncnc2cc1OCCOC(F)F`, the GI50 in assay [1] was 0.0646 µM; in assay [2], 1.12 µM; in assay [3] it was 0.497 µM; in [4], 1.72 µM; in assay [5] it was 1.67 µM; in [6], 0.919 µM. The GI50 is 1.64 µM in assay [7], under 0.01 µM in assay [8], 1.97 µM in [9] and 1.14 µM in [10]. Moreover, the TGI in assay [1] stood at 5.22 µM; in assay [2], 3.56 µM; in assay [3], 2.38 µM; in assay [4], 6.42 µM; in assay [5], 6.99 µM; in assay [6], 5.77 µM. The TGI was 7.04 µM in assay [7], 1.36 µM in assay [8], 8.62 µM in assay [9] and 4.59 µM in assay [10].
